# Results from patent publication US4062733A, “Radio-assay of oestrogen” (The Radiochemical Centre Limited, priority 1975, dated 1977).
# How the values were obtained:
# Format in all cases: binding
# [1] = tested on: antiserum produced by immunising with oestrone-6-carbomethoxyoximethyroglobulin (Miles-Yeda); assay: radioimmunoassay of oestrone, standard curve, Miles-Yeda antiserum; details: Miles-Yeda antiserum as supplied, label age 23 days
# [2] = tested on: antiserum produced by immunising with an oestrone derivative coupled in the 6 position (The John Radcliffe Hospital, Oxford); assay: radioimmunoassay of oestrone, standard curve, John Radcliffe Hospital antiserum; details: J. Radcliffe Hosp. antiserum 1/32,000, label age 30 days
# [3] = tested on: antiserum produced by immunising with oestradiol-6-carbomethoxyoxime-BSA (Miles-Yeda); assay: radioimmunoassay of oestradiol, standard curve, Miles-Yeda antiserum; details: Miles-Yeda antiserum as supplied, label age 23 days
# [4] = tested on: antiserum produced by immunising with an oestradiol derivative coupled in the 6 position (The John Radcliffe Hospital, Oxford); assay: radioimmunoassay of oestradiol, standard curve, John Radcliffe Hospital antiserum
# [5] = tested on: antiserum produced against oestriol conjugated to albumin (antiserum B); assay: radioimmunoassay of oestriol, standard curve, antiserum B
# Protocol: (§1) In the assay, an accurately known volume of the biological fluid is incubated with a standard amount of the radio-iodinated oestrogen derivative and a standard amont of the specific reagent, e.g. antibody, insufficient to bind all the oestrogens present. The radio-iodinated oestrogen derivatives and the specific reagent may conveniently be provided in buffered solution containing horse serum. […] The radioactive concentration of the precipitate and/or the supernatant liquid is then counted by standard techniques. If an absolute determination is required, a calibration curve may be generated in the usual way by means of oestrogen, e.g. oestriol, solutions of known concentrations, conveniently also in horse serum.
# (§2) Chloramine-T (0.5 mg in 100 μl water) is added to a stirred mixture of oestriol (50 μg in 400 ul ethanol) and Na^125 I (10mCi in 100 μl dilute NaOH), and the mixture is stirred for a further 5 minutes. Sodium metabisulphite (1.2 mg in 500 μl water) is then added and the mixture stirred for 5 minutes before 1 ml of 0.1 M HCl is added. The mixture is then vigorously stirred with 1 ml of chloroform. The aqueous layer is separated from the organic solvent, and the aqueous layer is re-extracted with a further 1 ml of chloroform. The pooled chloroform extracts are evaporated to dryness under a stream of nitrogen, and the residue is redissolved in 50 μl of ethanol. The ethanol solution of ^125 I -- labelled oestriol derivative is purified by chromatography and the product is diluted in phosphate buffer containing horse serum (10%), sodium azide (1 mg/ml) and gelatine (1 mg/ml) prior to use in the radioimmunoassay
# (§3) Samples of 50 μl of standard solutions of oestriol in horse serum, or of the unknown human serum samples, are dispensed into plastic tubes. To each tube is added 200 μl of a solution of enzymes (extracted from the snail Helix pomatia) in sodium acetate buffer, pH 5, and the contents of the tubes are briefly mixed. The tubes are then stoppered and incubated in a water bath at 37° C for 2 hours. After the incubation, replicate 50 μl samples are taken from the hydrolysed serum and dispensed into plastic tubes. to each tube is added 200 μl of phosphate buffer containing 10% horse serum, sodium azide (1 mg/ml) gelatine (1 mg/ml), and the oestriol derivative labelled with ^125 I as described above (approximately 0.3 μCi/ml). Volumes of 200 μl of the phosphate buffer containing horse serum, sodium azide and gelatine, and containing a dilution of antiserum produced against oestriol conjugated to albumin are added to each tube, and the contents of the tubes are then mixed. The tubes are left at ambient temperature for 30 minutes, and 500 μl of an ammoniumm sulphate solution (5.4 g in 10 ml water) is then added to each tube. After mixing, the tubes are centrifuged, the supernatant liquid is removed by aspiration and the precipitates in the tubes are counted in a γ-counter.
# [6] = tested on: antiserum produced against oestriol conjugated to albumin (antiserum A); assay: radioimmunoassay of oestriol, standard curve, antiserum A
# Protocol: as §1, §2, §3
# [7] = tested on: antiserum produced by immunising with oestriol-6-carbomethoxyoxime-BSA (antiserum A); assay: radioimmunoassay of oestetrol, standard curve, antiserum A; details: antiserum A 1/100, label age 7 days
# [8] = tested on: antiserum produced by immunising with oestriol-6-carbomethoxyoxime-BSA (antiserum B); assay: radioimmunoassay of oestetrol, standard curve, antiserum B; details: antiserum B 1/100, label age 7 days
# [9] = J. Radcliffe antiserum 1/640, label age 31 days
# [10] = J. Radcliffe antiserum 1/3200, label age 30 days
smiles,measurement,setting,value
"C[C@]12CC[C@@H]3c4ccc(O)cc4CC[C@H]3[C@@H]1CCC2=O [E1, oestrone]","% Bound, 1ng oestrone",[1],15.4%
same,"% Bound, 1ng oestrone",[2],11.2%
"C[C@]12CC[C@@H]3c4ccc(O)cc4CC[C@H]3[C@@H]1CC[C@@H]2O [E2, oestradiol]","% Bound, 1ng E2",[3],4.0%
same,"% Bound, 1ng E2",[4]; [9],32.7%
same,"% Bound, 2ng E2",[4]; [9],13.1%
same,"% Bound, 1ng E2",[4]; [10],3.0%
same,"% Bound, 2ng E2",[4]; [10],0.5%
"C[C@]12CC[C@@H]3c4ccc(O)cc4CC[C@H]3[C@@H]1C[C@@H](O)[C@@H]2O [E3, Oestriol]","% Bound, 50 ng E3",[5]; 50 ng E3,55.2%
same,"% Bound, 100 ng E3",[5]; 100 ng E3,47.3%
same,"% Bound, 200 ng E3",[5]; 200 ng E3,33.0%
same,"% Bound, 350 ng E3",[5]; 350 ng E3,21.4%
same,"% Bound, 500 ng E3",[5]; 500 ng E3,17.3%
same,"% Bound, 50 ng E3",[6]; 50 ng E3,57.2%
same,"% Bound, 100 ng E3",[6]; 100 ng E3,47.3%
same,"% Bound, 200 ng E3",[6]; 200 ng E3,32.6%
same,"% Bound, 350 ng E3",[6]; 350 ng E3,23.0%
same,"% Bound, 500 ng E3",[6]; 500 ng E3,17.5%
"C[C@]12CC[C@@H]3c4ccc(O)cc4CC[C@H]3[C@@H]1[C@@H](O)[C@@H](O)[C@@H]2O [E4, oestetrol]",% Binding in presence of 20ng E4,[7],11.0%
same,% Binding in presence of 20ng E4,[8],8.1%
